Data as given in publication PMC5865651, “Novel inhibitor candidates of TRPV2 prevent damage of dystrophic myocytes and ameliorate against dilated cardiomyopathy in a hamster model” (Oncotarget, 2018).
Where two headings read alike, the source gives them in different places.

Tests used:
[1] = target: T1, hTRPV1 (Homo sapiens, UniProt Q8NER1); assay: 2-APB/high extracellular CaCl2-induced increase in [Ca2+]i in hTRPV1-transfected HEK293 cells; format: cell-based
T1 construct: expressed in transfected cells; host or cells: HEK293 cells
Experimental: (§1) Figure 4 Effects of inhibitor compounds on the Ca^2+ response of cells expressing hTRPV1, hTRPV2, or hTRPC1 (A) Effect of compounds on CaCl2 (5 mM)-induced peak fluorescence ratio in non-transfected (nt) or hTRPV2-transfected CHO cells. The extracellular Ca^2+-dependent increase in the ratio of fura-2 fluorescence intensity at 340/380 nm (ΔR, 2 min after addition of chemicals) was plotted as ΔR/R0 after normalising to the initial fluorescence ratio (R0). […] Solid bar, no inhibitor. (B) Effect of compounds on 2-APB (1 mM)/high extracellular CaCl2-induced peak fluorescence ratio in nt or hTRPV1-transfected HEK293 cells. […] (C) Effect of compounds on store-operated Ca^2+ entry in nt or hTRPC1-transfected HEK293 cells. Cells were treated with the endoplasmic reticulum Ca^2+ pump inhibitor thapsigargin and exposed to CaCl2 and the indicated compounds. ΔR was measured 2 min after the addition of CaCl2. […] Data are shown as mean ± SD (n = 5).
(§2) [Ca^2+]i was measured by a ratiometric fluorescence method as previously described. Briefly, HEK293 cells were loaded with 4 μM fura-2-AM for 30 min at 37° C and maintained in balanced salt solution (BSS) (146 mM NaCl, 4 mM KCl, 2 mM MgCl2, 0.5 mM CaCl2, 10 mM glucose, 0.1% bovine serum albumin, and 10 mM HEPES/Tris, pH 7.4). Fura-2-AM fluorescence was measured using an Aquacosmos fluorescence image processor (Hamamatsu Photonics, Hamamatsu, Japan). The time-course data are presented as the ratio of fluorescence at an excitation wavelength of 340 nm to that at 380 nm. The increase in the fluorescence ratio induced by the TRPV2 agonist 2-APB or high extracellular Ca^2+ (ΔR) was normalized to the initial ratio (R0) before stimulation. The fluorescence relative ratio (ΔR/R0) was plotted as the summary data in the fluorescence imaging analysis.

[2] = target: T2, hTRPC1 (Homo sapiens, UniProt P48995); assay: Store-operated Ca2+ entry after thapsigargin in hTRPC1-transfected HEK293 cells; format: cell-based
T2 construct: expressed in transfected cells; host or cells: HEK293 cells
Experimental: as §1
as §2, with “Briefly, HEK293 cells were loaded with 4 μM fura-2-AM for 30 min at 37° C and maintained in balanced salt solution (BSS) (146 mM NaCl, 4 mM KCl, 2 mM MgCl2, 0.5 mM CaCl2, 10 mM glucose, 0.1% bovine serum albumin, and 10 mM HEPES/Tris, pH 7.4).” left out

[3] = system: cardiomyopathic J2N-k hamsters; assay: Cardiomyopathy in J2N-k hamsters in vivo (echocardiography, serum cTN-I, Masson's trichrome fibrosis); design: species or system hamster; conditions: 3 weeks
Experimental: Male δ-SG-deficient cardiomyopathic J2N-k and age-matched wild-type J2N-n hamsters (9 weeks old) were purchased from Japan SLC, Inc. (Shizuoka, Japan). Tranilast was ingested mixed with feed (300 mg/kg/day) as described previously, whereas other drugs (Figure 1) were administered orally in the drinking water at doses of 30 mg/kg (except lumin) per day for 3 weeks. In case of lumin, we first performed dose-dependent experiment at dose of 1,10 and100 mg/kg per day for 3 weeks, in order to determine the effective dose. […] After drug treatment, serum cardiac troponin (cTN)-I was measured and echocardiography analysis was performed. Histochemistry of cardiac muscles was performed as previously described. All animal experiments were performed according to the Guidelines for Animal Experimentation of the National Cerebral and Cardiovascular Center Research Institute.
Ventricles were fixed in phosphate-buffered saline containing 10% formalin and embedded in paraffin. Serial sections were cut at a thickness of 5 μm and stained with Masson's trichrome stain for morphological analysis. Sections were viewed under a BX41 light microscope (Olympus, Tokyo, Japan). Images were acquired with an FX380 digital camera (Olympus) and analysed using an FLVFS-LS imaging system (Flovel, Tokyo, Japan).
Fibrosis was assessed by measuring Masson's trichrome-positive areas. Briefly, colour images were converted to binary form by setting the threshold value so as to detect only blue-stained fibrotic areas, which were summed and reported as a percentage of the total.
Cardiac function was evaluated by echocardiography using a Sonos5500 ultrasound system (Hewlett-Packard, Palo Alto, CA, USA) with a 12-MHz transducer and M-mode imaging. The animals were sedated with tribromoethanol (350 mg/kg by intraperitoneal injection) during the process.
Creatine phosphokinase (CK) activity in the medium was determined using an in vitro colorimetric assay kit (CK Test Kit; Wako Pure Chemical Industries, Ltd., Osaka, Japan) according to the manufacturer's protocol The cTN-I level in the serum was measured, while quantitative immunoblotting and immunocytochemistry were performed as previously described. Protein concentration was measured using the bicinchoninic acid assay (Pierce Chemical Co., Rockford, IL, USA) with bovine serum albumin as the standard. All histochemical and physiological analyses were performed by investigators blinded to the drug treatments. Unless otherwise stated, results are presented as the mean ± SD of at least 5 determinations. The unpaired Student's t-test and one-way ANOVA followed by Dunnett's test were used to analyse the data. Values of P < 0.05 (indicated as asterisks in the figures) were considered statistically significant. All cellular measurements were repeated at least 5 times. Representative data are shown.

[4] = hTRPV1-transfected HEK293 cells, 2-APB 1 mM/high CaCl2, compound 15 μM
[5] = hTRPC1-transfected HEK293 cells, thapsigargin, compound 15 μM
[6] = 30 mg/kg per day orally in drinking water
[7] = unpublished observation, concentration not given

T2 sequence (P48995 whole entry): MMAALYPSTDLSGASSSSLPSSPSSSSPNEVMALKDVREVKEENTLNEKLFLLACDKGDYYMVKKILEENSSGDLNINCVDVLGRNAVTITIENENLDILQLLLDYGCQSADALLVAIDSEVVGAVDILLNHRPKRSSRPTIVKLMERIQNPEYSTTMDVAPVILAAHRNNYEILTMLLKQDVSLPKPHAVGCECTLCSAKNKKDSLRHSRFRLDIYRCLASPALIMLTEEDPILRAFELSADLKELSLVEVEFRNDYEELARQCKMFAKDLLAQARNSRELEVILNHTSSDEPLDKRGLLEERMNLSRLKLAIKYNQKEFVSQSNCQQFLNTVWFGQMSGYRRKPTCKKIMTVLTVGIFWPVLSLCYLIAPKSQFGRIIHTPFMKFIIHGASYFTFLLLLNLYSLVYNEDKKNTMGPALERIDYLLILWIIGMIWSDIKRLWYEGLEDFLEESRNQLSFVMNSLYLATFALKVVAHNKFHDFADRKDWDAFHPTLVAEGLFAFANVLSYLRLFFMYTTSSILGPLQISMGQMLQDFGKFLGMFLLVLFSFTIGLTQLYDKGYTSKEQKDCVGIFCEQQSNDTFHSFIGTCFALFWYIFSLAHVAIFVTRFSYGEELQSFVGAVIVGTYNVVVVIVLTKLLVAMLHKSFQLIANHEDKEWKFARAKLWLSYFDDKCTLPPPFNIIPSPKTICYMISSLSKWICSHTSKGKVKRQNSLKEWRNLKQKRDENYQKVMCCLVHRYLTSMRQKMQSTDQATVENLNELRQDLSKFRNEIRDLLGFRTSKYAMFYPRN
T1 sequence (Q8NER1 whole entry): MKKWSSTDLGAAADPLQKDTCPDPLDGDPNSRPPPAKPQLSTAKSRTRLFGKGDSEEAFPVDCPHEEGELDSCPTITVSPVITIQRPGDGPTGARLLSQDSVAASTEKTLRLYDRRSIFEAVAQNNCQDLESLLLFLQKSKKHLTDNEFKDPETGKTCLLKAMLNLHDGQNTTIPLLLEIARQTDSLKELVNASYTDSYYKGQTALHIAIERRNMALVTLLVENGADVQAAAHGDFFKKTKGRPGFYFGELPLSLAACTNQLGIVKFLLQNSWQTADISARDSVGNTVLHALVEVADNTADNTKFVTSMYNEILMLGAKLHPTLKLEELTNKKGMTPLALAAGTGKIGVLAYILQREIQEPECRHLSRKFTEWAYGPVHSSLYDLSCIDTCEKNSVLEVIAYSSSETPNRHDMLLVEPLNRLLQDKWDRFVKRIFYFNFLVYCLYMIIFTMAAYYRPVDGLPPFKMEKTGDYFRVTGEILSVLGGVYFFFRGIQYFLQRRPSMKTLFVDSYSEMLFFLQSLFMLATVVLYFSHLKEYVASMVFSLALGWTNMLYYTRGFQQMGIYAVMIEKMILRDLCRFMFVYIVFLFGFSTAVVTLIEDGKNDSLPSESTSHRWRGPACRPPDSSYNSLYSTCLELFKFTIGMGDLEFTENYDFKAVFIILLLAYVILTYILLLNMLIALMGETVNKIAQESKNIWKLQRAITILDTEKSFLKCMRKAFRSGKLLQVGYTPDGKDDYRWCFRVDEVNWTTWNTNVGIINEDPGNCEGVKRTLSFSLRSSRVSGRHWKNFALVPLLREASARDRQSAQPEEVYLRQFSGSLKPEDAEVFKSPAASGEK

increase in [Ca2+]i via TRPV1 [1, 4] | effect on store-operated increase in [Ca2+]i [2] | increase in [Ca2+]i via TRPV1 [1, 7] | increase in [Ca2+]i via TRPC1 [2, 7] | SMILES | effect on store-operated increase in [Ca2+]i [2, 5] | effect on fractional shortening (FS) [3, 6] | effect on left ventricular end-diastolic dimension (LVDd) [3, 6] | effect on left ventricular end-systolic dimension (LVDs) [3, 6] | effect on serum level of cTN-I [3, 6] | effect on fibrosis (Masson's trichrome) [3, 6] | effect on cardiac dysfunction (increased LVDs, reduced ejection fraction, decreased fractional shortening) ([3]; 10 mg/kg per day orally) | effect on fibrotic area ([3]; 10 mg/kg per day orally) | effect on the decrease in wall thickness ([3]; 10 mg/kg per day orally)
unaffected |  |  |  | COc1cccc(OCCn2cc(/C=N/n3cnnc3)c3ccccc32)c1 [B6, 1-{2-[3-((1E)-2-(1,2,4-triazol-4-yl)-2-azavinyl)indolyl]ethoxy}-3-methoxybenzene] | neither A3, A48, A63, nor B6 had any effect | prevented | small effect | prevented the increase | reduced |  |  |  | 
unaffected |  |  |  | COc1cc(/C=C(\C#N)C(=O)Nc2ccccc2C(=O)O)cc(Cl)c1OC [A3, 2-[(2E)-3-(3-Chloro-4,5-dimethoxyphenyl)-2-cyanoprop-2-enoylamino]benzoic acid] | neither A3, A48, A63, nor B6 had any effect | prevented | small effect | prevented the increase | reduced | prevented fibrosis |  |  | 
 | inhibited |  |  | NCCOB(c1ccccc1)c1ccccc1 [2-APB, 2-aminoethoxydiphenylborate] |  |  |  |  |  |  |  |  | 
 |  | did not affect | did not affect | CCN1C=CC(=CC=C(C=Cc2cc[n+](CC)c3ccccc23)c2cc[n+](CC)c3ccccc23)c2ccccc21.[I-].[I-] [lumin, 4,4′-[3-[2-[1-ethyl-4(1H)-quinolinylidene]ethylidene]-1-propene-1,3-diyl]bis(1-ethylquinolinium) diiodide] |  |  |  |  |  |  | prevented | reduced | partially prevented
